Reference: patent US10053443B2, “2-phenylbenzofuran derivatives, method for preparing the same and use of the same for treating inflammatory disease” (KOREA RESEARCH INSTITUTE OF BIOSCIENCE AND BIOTECHNOLOGY, priority 2014, dated 2018)
Where two headings read alike, the source gives them in different places.

Columns and labels:
[1] = tested on: Raw 264.7 (ATCC TIB71) cells; assay: Evaluation of cell survival rate of macrophages (MTT); assay type: cell-based, mouse; settings: Raw 264.7, 10 μM, 24 hours
Description: Raw 264.7 (ATCC TIB71) cells, the mouse derived macrophages', were inoculated in a 96-well plate containing DMEM (Dulbecco's modified Eagle medium; Welgene, Korea) supplemented with 10% FBS (Fetal Bovine Serum), 2 mM glutamine, penicillin (100 unit/ml), and streptomycin (100 μg/ml) at the density of 1×10^4 cells/well. The cells were cultured in 5% CO2 at 37° C. for 4 hours to attach the cells onto the plate. Next, the cells were treated with each sample at different concentrations, followed by further culture for 24 hours. To investigate the cell survival rate, 5 mg/ml of MTT (3-(4,5-dimethylthiazol-2-yl)-2,5-diphenyltetrazoliumbromide, Amresco, OH, USA) was distributed thereto (10 μl/well), followed by culture for 4 hours. Then, the supernatant was eliminated. Formazan reduced from MTT by mitochondria was dissolved in 100 μl of DMSO and then OD570 was measured. 0.2% DMSO was used for the negative control.

[2] = tested on: Nitrogen Oxide (NO) generation; assay: Inhibition of nitrogen oxide (NO) generation in LPS-treated Raw 264.7 cells (Griess); assay type: cell-based, mouse; settings: Raw 264.7, LPS 500 ng/ml, 24 hours
Description: Raw 264.7 (ATCC TIB71) cells were inoculated in a 96-well plate containing the same medium as used in Experimental Example 1 at the density of 1×10^5 cells/well. The cells were cultured in 5% CO2 at 37° C. for 4 hours to attach the cells onto the plate. The cells were treated with each sample at different concentrations, followed by further culture for 1 hour. […] were treated thereto at the final concentration of 500 ng/ml, followed by further culture for 24 hours. 100 μl of the supernatant was taken and transferred in a new plate, which was mixed with Griess reagent (a mixture of 1% sulfanilamide, 0.1% N-[1-naphthyl]-ethylenediamine dihydrochloride, and 5% phosphoric acid), followed by reaction for 10 minutes. Then, OD540 was measured. NO generation was quantified by using the sodium nitrite standard curve prepared from […] dissolved in the same medium at different concentrations. Considering the NO generation of the inflammation induced macrophages as 100%, the NO generation inhibition rate was calculated and presented in Table 7.

[3] = tested on: rheumatoid arthritis animal model; settings: DBA/1 CIA mice, 30 mg/kg oral, FIGS. 11 and 12
Description: (§1) Bovine type II collagen (100 μg/mouse, Hondrax, Seattle, USA) and complete Freund's adjuvant (Chondrex, Seattle, USA) were intradermally injected in the tail of […]. On day 21, 100 μg of bovine type II collagen was mixed with incomplete Freund's adjuvant (IFA), which was injected in the tail of each mouse once again to induce arthritis.
(§2) The compound of Example 25 of the invention was dissolved in a solvent (10% DMAC+10% Tween 80 in PBS).
(§3) Administration pathway: Oral administration Group (6 per group) • Vehicle control group (CIA group) • Dexamethasone (0.3 mg/kg)—positive control group • Example 25 compound group (30 mg/kg)

TNF-alpha = settings: DBA/1 CIA mice, 30 mg/kg oral, FIG. 13
Description: as §1, §2, §3
(§4) ELISA was performed with the serum and foot to investigate whether or not the compound of the invention could suppress the generation of TNF-alpha and interleukin-6, the inflammatory cytokines known as the promoter of inflammation which is the common symptom of acute and chronic arthritis.

interleukin-6 = settings: DBA/1 CIA mice, 30 mg/kg oral, FIG. 14
Description: as §1, §2, §3, §4

[4] = tested on: interleukin-6 (IL-6) generation; assay: Inhibition of interleukin-6 (IL-6) generation in LPS-treated Raw 264.7 cells (ELISA); assay type: cell-based, mouse; settings: Raw 264.7, LPS treated, read-out: Grades of IC50 on IL-6 generation
Description: Raw 264.7 cells were distributed by the same manner as described in Experimental Example <2-1>, and IL-6 included in the supernatant treated with each sample at different concentrations was measured by enzyme-linked immunosorbent assay (IL-6 ELISA kit, BD Bioscience, San Diego, Calif.).
(§5) Particularly, 10-fold diluted supernatant was distributed in a 96-well plate on which IL-6 antibody was attached, followed by adhesion for 2 hours. The supernatant remaining after the adhesion was washed with a washing buffer. The detection antibody and HRP were adhered on the washed plate for 1 hour. The remaining antibody was washed. Color development was induced by using TMB substrate. The reaction was terminated with sulfuric acid solution. Then, OD450 was measured. IL-6 in the supernatant was quantified by using the standard curve made with the standard IL-6 included in the kit. IL-6 suppression rate was calculated by measuring the same concentration that could inhibit IL-6 generation up to 50% in the LPS treated group and the results are shown in Table 8.

[5] = tested on: Tumor Necrosis Factor Alpha (TNF-alpha); assay: Inhibition of TNF-alpha generation in LPS-treated Raw 264.7 cells (ELISA); assay type: cell-based; settings: Mus musculus, RAW264.7; Raw 264.7, LPS treated; read-out: Grades of IC50 on TNF-alpha generation
Description: Raw 264.7 cells were distributed by the same manner as described in Experimental Example <2-1>, which were treated with the samples selected due to their high NO and IL-6 suppressing effect at different concentrations. TNF-alpha included in the supernatant was measured by enzyme-linked immunosorbent assay (TNF-alpha ELISA kit, R&D Systems, MN, USA).
as §5, with “100-fold” for “10-fold”, “TNF-alpha” for “IL-6”, “9.” for “8.”

[6] = Rheumatoid arthritis (collagen-induced) model: weight changes; assay type: in vivo, mouse; settings: DBA/1 CIA mice, 30 mg/kg oral, FIG. 10
Description: Bovine type II collagen (100 μg/mouse, Hondrax, Seattle, USA) and complete Freund's adjuvant (Chondrex, Seattle, USA) were intradermally injected in the tail of 7˜9 DBA/1 male mouse. On day 21, 100 μg of bovine type II collagen was mixed with incomplete Freund's adjuvant (IFA), which was injected in the tail of each mouse once again to induce arthritis.

Row | SMILES | Grades of cell survival rate (%, in 10 μM) [1] | Grades of NO generation inhibition rate (%) [2] | edema in the foot induced by collagen (clinical score) [3] | generation of TNF-alpha induced by collagen (TNF-alpha) | generation of interleukin-6 induced by collagen (interleukin-6) | IC50 [4] | IC50 [5] | weight change [6] | IC50 ([4]; Mus musculus, RAW264.7)
1 | COc1cc(CCCO)cc(CCc2cccc(C)c2)c1O [Example 15, 4-(3-hydroxypropyl)-2-methoxy-6-(3-methylpenethyl)phenol] | A (A: 90<A≤100) | A (A: 35<A≤100) | suppressed edema in the foot induced by collagen up to the level of the positive control | inhibited | inhibited | 20 to 30 µM | – | – | –
2 | COc1cc(CCCO)cc2cc(-c3ccc(O)c(O)c3)oc12 [Example 25, 4-(5-(3-hydroxypropyl)-7-methoxybenzofuran-2-yl)benzene-1,2-diol] | A (A: 90<A≤100) | A (A: 35<A≤100) | – | – | – | – | 1 to 3 µM | no weight change observed | ≤ 10 µM
